Where two headings read alike, the source gives them in different places. Where a SMILES comes first, the peptide text is derived from it. [ ]: non-standard residue; d: D form. The star is where a group is joined. Bip(2'-Et,4'-O(CH2)4NH2) = CCc1cc(OCCCCN)ccc1-c1ccc(C[C@H](N)C(=O)O)cc1; Malonyl(2,2-Me2,histaminyl) = CC(C)(C(=O)NCCc1cnc[nH]1)C(=O)*; Nva(5-(3,5-Me2Ph)) = Cc1cc(C)cc(CCC[C@H](N)C(=O)O)c1; Ala(1H-tetrazol-5-yl) = N[C@@H](Cc1nnn[nH]1)C(=O)O; αMePhe(2-F) = C[C@](N)(Cc1ccccc1F)C(=O)O
Legend:
[1] = biological target: T1, human gastric inhibitory polypeptide receptor (GIPR) (Homo sapiens, UniProt P48546); test: Luciferase reporter assay, HEK293/CRE-Luc/hGIPR (Example 17); type: cell-based; set-up: expressed in transfected cells; host or cells: HEK293/CRE-Luc; conditions: Table 28; CRE-dependent luciferase reporter activity; read-out: HEK293/CRE-Luc/hGlPR EC50
T1 sequence (P48546 22-466): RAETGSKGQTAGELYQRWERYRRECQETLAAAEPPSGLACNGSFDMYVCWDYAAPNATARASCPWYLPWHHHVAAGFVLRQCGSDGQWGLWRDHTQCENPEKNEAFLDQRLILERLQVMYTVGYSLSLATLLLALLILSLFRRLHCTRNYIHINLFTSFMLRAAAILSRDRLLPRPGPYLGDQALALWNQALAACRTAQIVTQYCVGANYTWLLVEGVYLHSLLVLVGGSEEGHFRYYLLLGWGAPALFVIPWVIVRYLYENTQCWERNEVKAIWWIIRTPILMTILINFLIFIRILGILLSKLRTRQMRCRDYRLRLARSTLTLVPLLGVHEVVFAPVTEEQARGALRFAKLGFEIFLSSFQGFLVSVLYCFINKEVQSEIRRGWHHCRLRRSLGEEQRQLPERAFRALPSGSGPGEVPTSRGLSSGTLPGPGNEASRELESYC
From the text: To test the activity of GLP1R agonist payloads, GLP1R agonist linker-payloads (LPs), and anti-GLP1R antibody tethered drug conjugates (ATDCs) of the invention, a cell-based cAMP responsive luciferase reporter assay was developed. To generate the assay cell line, the firefly luciferase gene was placed under the control of a cAMP response element (CRE) located upstream of a minimal promoter and transfected into HEK293 cells and referred to herein as HEK293/CRE-Luc cells.
Three-fold serial dilutions of free payloads or LPs were prepared in 100% DMSO, transferred to fresh assay media, and added to the cells at a final constant DMSO concentration of 0.2%. The last well in the plate served as a blank control containing only the assay media and 0.2% DMSO (untreated well) and was plotted as a continuation of the 3-fold serial dilution. Four to six hours later, luciferase activity was determined after the addition of One-Glo™ reagent (Promega, Cat #E6130) to each well. Relative light units (RLUs) were measured on an Envision luminometer (PerkinElmer) and EC50 values were determined using a four-parameter logistic equation over a 12-point dose response curve (GraphPad Prism). The signal to noise (S/N) was determined by taking the ratio of the highest RLU on the dose response curve to the RLU in the untreated wells. […]

[2] = biological target: T1, human gastric inhibitory polypeptide receptor (GIPR); test: CRE-luciferase reporter assay, HEK293/Myc-hGIPR/Cre-Luc (Example 9); type: cell-based; set-up: Myc; expressed in transfected cells; conditions: Table 5C
Protocol: To test the activity of GLP1R agonist payloads and GLP1R agonist linker-payloads (LPs) in vitro, a cell-based cAMP responsive luciferase reporter assay was developed.
Cells were incubated overnight at 37° C. in 5% CO2. […] Plates were incubated for 5.5 h at 37° C. in 5% CO2. For end-point measurement, 100 μL/well of One-Glo reagent (Promega, #E6051) was added and plates were kept at room temperature for 5-10 minutes. Luciferase activity was measured on Envision Multilabel Plate Reader (Perkin Elmer) in Luminescent mode. The relative light units (RLU) values were obtained and the results were analyzed using nonlinear regression with GraphPad Prism software (GraphPad).

[3] = Plasma stability of payloads and linker-payloads, human plasma; type: in vitro ADME
In short: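 Pooled plasma, pH adjusted to 7.4±0.1 where needed, spiked to 2 μM compound (duplicate) and incubated at 37 °C. At each time point, protein was precipitated with ACN/MeOH stop solution containing internal standards; remaining compound quantified in supernatant by LC-MS/MS.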

[4] = biological target: human GLP1R (Homo sapiens, UniProt P43220); test: Human GLP1R cAMP accumulation assay; type: cell-based; set-up: HEK293 cells over-expressing full length human GLP-1R were utilized; expressed in transfected cells; host or cells: HEK293 (HEK293/hGLP1R)
Sequence of human GLP1R (P43220 24-463): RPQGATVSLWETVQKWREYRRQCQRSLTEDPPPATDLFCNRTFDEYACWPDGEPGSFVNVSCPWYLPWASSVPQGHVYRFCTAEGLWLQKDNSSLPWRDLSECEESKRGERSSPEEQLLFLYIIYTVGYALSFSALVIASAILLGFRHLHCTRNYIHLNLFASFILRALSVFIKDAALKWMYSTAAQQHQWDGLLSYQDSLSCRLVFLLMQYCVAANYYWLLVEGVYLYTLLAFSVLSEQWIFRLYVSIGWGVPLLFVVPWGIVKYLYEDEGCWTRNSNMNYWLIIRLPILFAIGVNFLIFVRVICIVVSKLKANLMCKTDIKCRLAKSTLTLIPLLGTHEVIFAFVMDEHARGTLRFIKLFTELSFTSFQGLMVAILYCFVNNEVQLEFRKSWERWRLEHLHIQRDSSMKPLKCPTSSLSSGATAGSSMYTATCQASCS
In short: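 cAMP accumulation measured after 30 min at 23° C, with 500 μM IBMX in HEPES-buffered HBSS plus 0.1% BSA, in HEK293 cells expressing full-length hGLP-1R. Levels read by D2-cAMP/antibody immunoassay via standard curve, scaled between low and high controls. EC50 fitted four-parameter over a 10-point curve.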

[5] = HEK293/hGLP1R cells, Table 4, read-out: cAMP EC50

Row | Structure (SMILES) | EC50 [1] | GIPR EC50 (nM) [2] | half-life at 2 µM ([3]; pooled plasma, pH 7.4, Table 5C, read-out: Plasma Stability Human T½) | half-life at 2 µM ([3]; pooled plasma, pH 7.4, tested time C (3 days), 2 μM, 37° C., read-out: Human plasma stability assay T½ (converted)) | EC50 [4, 5] | EC50 ([4]; Table 5C, read-out: c-AMP EC50) | half-life at 2 µM ([3]; plasma, pH 7.4, tested time A (1 day per footnote), 2 μM, 37° C., read-out: Human plasma stability assay T½ (converted))
1 | CCc1cc(OCCCCn2cc(COCCOCCOCCOCCOCCOCCOCCOCCN)nn2)ccc1-c1ccc(C[C@H](NC(=O)[C@H](CC(=O)O)NC(=O)[C@H](CO)NC(=O)[C@@H](NC(=O)[C@](C)(Cc2ccccc2F)NC(=O)[C@@H](NC(=O)CNC(=O)[C@H](Cc2nn[nH]n2)NC(=O)C(C)(C)C(=O)NCCc2cnc[nH]2)[C@@H](C)O)[C@@H](C)O)C(=O)N[C@@H](CCCc2cc(C)cc(C)c2)C(N)=O)cc1 [M3190] | > 200000 pM | – | – | – | – | – | –
2 | CCc1cc(OCCCCn2cc(COCCOCCOCCOCCOCCOCCOCCOCCN)nn2)ccc1-c1ccc(C[C@H](NC(=O)[C@H](CC(=O)O)NC(=O)[C@H](CO)NC(=O)[C@@H](NC(=O)C(C)(Cc2ccccc2F)NC(=O)[C@@H](NC(=O)CNC(=O)[C@H](Cc2nn[nH]n2)NC(=O)C(C)(C)C(=O)NCCc2cnc[nH]2)[C@@H](C)O)[C@@H](C)O)C(=O)N[C@@H](CCCc2cc(C)cc(C)c2)C(N)=O)cc1 (some centres unmarked) [LP11, NH2-PEG8-triazole-P8] | – | Completely inactive | > 168 h | > 173 h | 318 pM | 318 pM | –
3 | CCc1cc(OCCCCN)ccc1-c1ccc(C[C@H](NC(=O)[C@H](CC(=O)O)NC(=O)[C@H](CO)NC(=O)[C@@H](NC(=O)[C@](C)(Cc2ccccc2F)NC(=O)[C@@H](NC(=O)CNC(=O)[C@H](Cc2nn[nH]n2)NC(=O)C(C)(C)C(=O)NCCc2cnc[nH]2)[C@@H](C)O)[C@@H](C)O)C(=O)N[C@@H](CCCc2cc(C)cc(C)c2)C(N)=O)cc1 [P9, (8S,14S,17S,20S,23S,26S)-8-((2H-tetrazol-5-yl)methyl)-26-(((S)-1-(((S)-1-amino-5-(3,5-dimethylphenyl)-1-oxopentan-2-yl)amino)-3-(4′-(4-aminobutoxy)-2′-ethyl-[1,1′-biphenyl]-4-yl)-1-oxopropan-2-yl)carbamoyl)-17-(2-fluorobenzyl)-14,20-bis((R)-1-hydroxyethyl)-23-(hydroxymethyl)-1-(1H-imidazol-5-yl)-5,5,17-trimethyl-4,6,9,12,15,18,21,24-octaoxo-3,7,10,13,16,19,22,25-octaazaoctacosan-28-oic acid] ({Malonyl(2,2-Me2,histaminyl)}-[Ala(1H-tetrazol-5-yl)]GT[αMePhe(2-F)]TSD[Bip(2'-Et,4'-O(CH2)4NH2)][Nva(5-(3,5-Me2Ph))]-NH2) | – | – | – | – | 50 pM | – | > 57.8 h

Reference: US20230330254A1 (Regeneron Pharmaceuticals, Inc., priority 2022, published 2023)
